According to paper PMC10914731, “Homo-BacPROTAC-induced degradation of ClpC1 as a strategy against drug-resistant mycobacteria” (Nature Communications, 2024):
Values after ≈ are worked out from the molar mass of the structure shown. Values joined by “and” are separate entries in the source; they are usually repeats but may differ in a detail not shown here. Equal values may be shown once. Read-outs that look alike come from different tables or passages of the source.

Experiments:
[1] = target: ClpC1 NTD protein (M. tuberculosis) (Mycobacterium tuberculosis, UniProt P9WPC9); test: biochemical; format: binding; details: SPR
[2] = in vitro; details: human
Outline: (§1)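 Permeability across Caco-2 monolayers was measured in both directions, apical-to-basolateral and basolateral-to-apical, in 10^-6 cm s-1. Efflux ratio = P(B−A)/P(A−B). Intrinsic permeability is the mean of P(A−B) and P(B−A).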

[3] = test system: Caco-2 monolayers; test: in vitro; details: human, Caco-2
Outline: as §1

[4] = format: in vitro ADME, Mice; details: clearance in microsomes
Outline: (§2)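 Compound at 1 µmol/l incubated with 0.5 mg/ml liver microsomes in 100 mM Tris-HCl pH 7.5, 6.5 mM MgCl2, 1 mM NADPH, 37 °C; acetonitrile-quenched at multiple time points, measured by HPLC-MS/MS. First-order half-lives converted to clearance as %Qh via well-stirred liver model.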

[5] = format: in vitro ADME, Rat
Outline: as §2

[6] = Microsomal stability, human; format: in vitro ADME
Outline: as §2

[7] = Hepatocyte stability, mice; format: in vitro ADME; details: mouse, pH 7.4
Outline: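 Parent depletion by HPLC-MS/MS in mouse hepatocyte suspension (50% serum, ~1 million cells/mL) with 1 µM compound over up to 6 h at 37 °C. Half-lives were scaled to % Qh using the well-stirred liver model.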

[8] = format: in vitro ADME, Rat; details: rat, pH 7.4
[9] = format: in vitro ADME, Human; details: human, pH 7.4
[10] = test system: M. tuberculosis H37Rv (ATCC 27294); test: microbe, parasite or virus in culture; format: cell-based
[11] = test system: Msm 607; test: microbe, parasite or virus in culture; format: cell-based
[12] = test system: Msm 700084; test: microbe, parasite or virus in culture; format: cell-based
[13] = target: His6-tagged ClpC1-NTD substrate, M. smegmatis ClpC1P1P2 (UniProt A0R574+P9WPC9); test: biochemical; format: biochemical; details: Msm
[14] = target: ClpC1-NTD substrate, M. tuberculosis ClpC1P1P2 (Mycobacterium tuberculosis, UniProt P9WPC9); test: biochemical; format: biochemical; details: Mtb
[15] = test system: Mtb H37Rv in THP-1 macrophages; test: Intracellular MIC assay in THP-1 macrophages; format: cell-based, Mycobacterium tuberculosis; design: Emax: unit not given here
[16] = test system: Mtb (moxR) FNDR-M1; test: microbe, parasite or virus in culture; format: cell-based
[17] = test system: Mtb (katG del) ATCC 35822; test: microbe, parasite or virus in culture; format: cell-based
[18] = test system: Mtb # 11291; test: microbe, parasite or virus in culture; format: cell-based; details: for MIC: read-out: MIC Mtb # 11291
[19] = test system: Mtb # 8673; test: microbe, parasite or virus in culture; format: cell-based
[20] = mean of the measurements, read-out: 1-Dmax, Mean
[21] = mean of the measurements, read-out: DC50, Mean
[22] = Mycobacterium tuberculosis, mean, n = 2 well replicates
[23] = Mycobacterium tuberculosis, single well replicates

Chain of ClpC1 NTD protein (M. tuberculosis) (P9WPC9 1-156, looked up, natural form): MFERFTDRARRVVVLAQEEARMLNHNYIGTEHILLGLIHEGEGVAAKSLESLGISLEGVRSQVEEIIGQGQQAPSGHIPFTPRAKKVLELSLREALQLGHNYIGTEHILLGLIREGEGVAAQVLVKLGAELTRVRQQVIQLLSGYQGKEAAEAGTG
Chain of His6-tagged ClpC1-NTD substrate, M. smegmatis ClpC1P1P2 (P9WPC9 1-156, looked up, natural form): as above
Chain of His6-tagged ClpC1-NTD substrate, M. smegmatis ClpC1P1P2 (A0R574 whole entry): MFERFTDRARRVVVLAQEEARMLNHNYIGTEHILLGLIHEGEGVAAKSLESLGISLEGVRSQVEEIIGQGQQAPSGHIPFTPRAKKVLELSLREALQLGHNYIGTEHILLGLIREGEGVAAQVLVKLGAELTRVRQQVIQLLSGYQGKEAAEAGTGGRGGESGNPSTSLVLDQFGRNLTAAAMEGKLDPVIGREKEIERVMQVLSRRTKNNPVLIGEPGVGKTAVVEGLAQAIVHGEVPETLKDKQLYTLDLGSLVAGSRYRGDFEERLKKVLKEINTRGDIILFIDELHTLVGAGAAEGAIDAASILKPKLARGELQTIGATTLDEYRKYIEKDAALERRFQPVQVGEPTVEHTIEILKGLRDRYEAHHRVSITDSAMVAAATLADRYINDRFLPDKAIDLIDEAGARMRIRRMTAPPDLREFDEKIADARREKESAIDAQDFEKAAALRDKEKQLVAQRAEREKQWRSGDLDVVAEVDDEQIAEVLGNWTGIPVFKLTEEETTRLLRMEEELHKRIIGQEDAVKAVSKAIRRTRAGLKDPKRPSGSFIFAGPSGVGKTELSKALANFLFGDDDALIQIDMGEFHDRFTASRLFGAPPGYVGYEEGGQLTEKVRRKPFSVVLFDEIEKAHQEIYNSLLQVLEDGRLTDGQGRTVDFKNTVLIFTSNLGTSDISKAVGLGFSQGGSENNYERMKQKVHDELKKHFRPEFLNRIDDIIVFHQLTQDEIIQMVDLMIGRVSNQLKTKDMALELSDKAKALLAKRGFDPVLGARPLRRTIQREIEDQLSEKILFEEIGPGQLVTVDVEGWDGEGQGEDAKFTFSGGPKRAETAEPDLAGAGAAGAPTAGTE
Chain of ClpC1-NTD substrate, M. tuberculosis ClpC1P1P2 (P9WPC5 whole entry): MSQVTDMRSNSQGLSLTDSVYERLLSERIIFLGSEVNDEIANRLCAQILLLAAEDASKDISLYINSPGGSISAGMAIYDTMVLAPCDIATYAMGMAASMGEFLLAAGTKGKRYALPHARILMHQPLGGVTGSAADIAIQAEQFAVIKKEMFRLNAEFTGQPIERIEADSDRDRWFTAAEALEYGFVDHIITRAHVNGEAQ
Chain of ClpC1-NTD substrate, M. tuberculosis ClpC1P1P2 (P9WPC9 whole entry): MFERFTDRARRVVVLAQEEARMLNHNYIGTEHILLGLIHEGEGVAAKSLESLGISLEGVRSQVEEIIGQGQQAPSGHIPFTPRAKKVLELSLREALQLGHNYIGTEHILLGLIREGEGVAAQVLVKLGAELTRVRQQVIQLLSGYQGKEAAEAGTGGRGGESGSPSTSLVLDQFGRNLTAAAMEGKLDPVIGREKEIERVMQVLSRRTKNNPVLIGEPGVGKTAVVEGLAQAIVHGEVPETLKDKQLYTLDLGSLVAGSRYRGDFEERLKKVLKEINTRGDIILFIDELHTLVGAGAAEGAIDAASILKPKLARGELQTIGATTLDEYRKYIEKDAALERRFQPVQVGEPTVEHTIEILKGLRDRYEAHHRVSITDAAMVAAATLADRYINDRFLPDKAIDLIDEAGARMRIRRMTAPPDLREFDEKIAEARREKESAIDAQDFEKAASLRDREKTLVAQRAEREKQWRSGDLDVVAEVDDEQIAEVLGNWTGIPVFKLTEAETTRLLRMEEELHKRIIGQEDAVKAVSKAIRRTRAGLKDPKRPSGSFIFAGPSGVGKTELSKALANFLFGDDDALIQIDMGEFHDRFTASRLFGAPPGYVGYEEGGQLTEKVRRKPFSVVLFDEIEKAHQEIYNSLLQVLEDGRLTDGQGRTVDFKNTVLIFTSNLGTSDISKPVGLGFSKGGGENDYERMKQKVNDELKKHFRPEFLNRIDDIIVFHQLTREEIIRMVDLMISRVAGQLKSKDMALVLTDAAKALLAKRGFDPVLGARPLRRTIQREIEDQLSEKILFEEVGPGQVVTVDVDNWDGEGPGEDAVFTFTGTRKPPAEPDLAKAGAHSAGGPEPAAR
Chain of ClpC1-NTD substrate, M. tuberculosis ClpC1P1P2 (P9WPC3 whole entry, further chain): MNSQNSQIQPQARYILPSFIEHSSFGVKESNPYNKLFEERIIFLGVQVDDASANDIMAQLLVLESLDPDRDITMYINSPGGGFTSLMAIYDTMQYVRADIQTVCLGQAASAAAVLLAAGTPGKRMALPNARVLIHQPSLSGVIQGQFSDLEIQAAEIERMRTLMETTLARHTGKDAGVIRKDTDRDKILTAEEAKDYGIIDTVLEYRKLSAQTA

CO[C@H](c1ccccc1)[C@@H]1NC(=O)[C@H](C)NC(=O)[C@H](C[C@@H](C)CO)N(C)C(=O)[C@H](Cc2cn(C)c3ccccc23)NC(=O)[C@H](Cc2cn(CCOCCOCCn3cc(C[C@@H]4NC(=O)[C@H](CC(C)C)N(C)C(=O)[C@H](C(C)C)NC(=O)[C@H]([C@H](OC)c5ccccc5)NC(=O)[C@H](C)NC(=O)[C@H](C[C@@H](C)CO)N(C)C(=O)[C@H](Cc5cn(C)c6ccccc56)NC4=O)nn3)nn2)NC(=O)[C@H](CC(C)C)N(C)C(=O)[C@H](C(C)C)NC1=O [Compound 11]
Kd ([1]; individual measurements (source data), read-out: KD ClpC1-NTD): 0.306 nM and 0.313 nM and 0.72 nM and 0.499 nM and 0.412 nM and 0.253 nM and 0.262 nM
koff ClpC1-NTD ([1]; single independent measurements): 0.0009 s⁻¹ and 0.0004 s⁻¹
Kd ([1]; read-out: ClpC1-NTD KD Mean ± SD): 0.4 ± 0.2 nM
efflux ratio ([2]; Caco-2): 2.6
Papp B→A ([2]; Caco-2, CACO permeability PEBA): 0.36 ×10⁻⁶ cm/s
Papp A→B ([2]; Caco-2, Caco-2 permeability P (A-B)): 1.6 ×10⁻⁶ cm/s
Papp B→A ([2]; Caco-2, Caco-2 permeability P (B-A)): 4.2 ×10⁻⁶ cm/s
Caco-2 Int. Perm [3]: 2.9
Microsomal Stability Mice [4]: < 24 %Qh
Microsomal Stability Rat QH ([5]; Rat): <23.1%
Microsomal Stability Rat ([5]; clearance in microsomes): < 23 %Qh
Microsomal Stability Human QH ([6]; Human): <24.4%
Microsomal Stability Human ([6]; clearance in microsomes): < 24 %Qh
Hepatocyte Mice [7]: 15 %Qh
Hepatocyte Rat [8]: 6 %Qh
Hepatocyte Stability Rat QH [8]: 6.192%
Hepatocyte Human [9]: 12 %Qh
Hepatocyte Stability Human QH [9]: 12.386%
MIC ([10]; Mycobacterium tuberculosis, M. tuberculosis H37Rv strain, read-out: MIC Mtb H37Rv Mean ± SD): 0.1 µM (≈ 0.203 µg/mL)
MIC ([10]; Mycobacterium tuberculosis, Mtb H37Rv (Supplementary Table 2), read-out: MIC Mtb): 0.1 µM (≈ 0.203 µg/mL)
MIC ([10]; Mycobacterium tuberculosis, individual measurements (source data), read-out: Mtb MIC): 0.097 µM (≈ 0.197 µg/mL)
MIC ([10]; Mycobacterium tuberculosis, single determinations, read-out: Mtb MIC): 0.097 µM (≈ 0.197 µg/mL)
MIC ([10]; individual measurements (source data), read-out: Mtb MIC): 0.097 µM (≈ 0.197 µg/mL)
MIC ([11]; Mycolicibacterium smegmatis, 607, read-out: MIC Msm 607): 1.6 µM (≈ 3.24 µg/mL)
MIC ([11]; Mycolicibacterium smegmatis, 607, read-out: Msm 607 MIC, single determinations): 1.56 µM (≈ 3.16 µg/mL)
MIC ([12]; Mycolicibacterium smegmatis, 700084, single determinations, read-out: Msm 700084 MIC): 1.56 µM (≈ 3.16 µg/mL)
MIC ([12]; Mycolicibacterium smegmatis, 700084, read-out: MIC Msm 700084): 1.6 µM (≈ 3.24 µg/mL)
1-Dmax, single measurements ([13]; Measurement 1-6): 84.8% and 87.6% and 91.1%
1-Dmax (percent substrate remaining at maximal degradation) ([13]; Measurement 1-6, read-out: 1-Dmax, single measurements): 85.6%
DC50 ([13]; Measurement 1-6, read-out: DC50, single measurements): 7400 nM and 6100 nM and 5000 nM and 3900 nM
1-Dmax (percent substrate remaining at maximal degradation) [13, 20]: 87%
DC50 [13, 21]: 5600 nM
1-Dmax, single measurements ([14]; Measurement 1-4): 69.6%
1-Dmax (percent substrate remaining at maximal degradation) ([14]; Measurement 1-4, read-out: 1-Dmax, single measurements): 77.4%
DC50 ([14]; Measurement 1-4, read-out: DC50, single measurements): 4700 nM and 5400 nM
1-Dmax (percent substrate remaining at maximal degradation) [14, 20]: 74%
DC50 [14, 21]: 5100 nM
Emax [15]: 0.51

NNC(=O)c1ccncc1 [Isoniazid]
MIC ([10]; M. tuberculosis H37Rv 27294, single well replicates, read-out: MIC): 0.23 µM (≈ 0.0315 µg/mL)
MIC ([10]; Mycobacterium tuberculosis, M. tuberculosis H37Rv 27294, single well replicates, read-out: MIC): 0.23 µM (≈ 0.0315 µg/mL)
MIC ([10]; Mycobacterium tuberculosis, Mtb H37Rv, mean ± SD, n = 3 well replicates, read-out: MIC): 0.2 µM (≈ 0.0274 µg/mL)
MIC ([16]; M. tuberculosis FNDR-M1, single well replicates): 0.11 µM (≈ 0.0151 µg/mL)
MIC ([16]; Mycobacterium tuberculosis, M. tuberculosis FNDR-M1, single well replicates): 0.11 µM (≈ 0.0151 µg/mL)
MIC ([16]; Mycobacterium tuberculosis, Mtb (moxR) FNDR-M1, mean ± SD, n = 3 well replicates): 0.1 µM (≈ 0.0137 µg/mL)
MIC ([17]; M. tuberculosis ATCC 35822, single well replicates): >232.22 µM
MIC ([17]; Mycobacterium tuberculosis, ATCC35822, M. tuberculosis ATCC 35822, single well replicates): > 232 µM
MIC ([17]; Mycobacterium tuberculosis, ATCC35822, Mtb (katG del) ATCC 35822, mean ± SD, n = 3 well replicates): > 232 µM
MIC [18, 22]: 3.6 µM and 0.5 µg/mL
MIC [18, 23]: 3.65 µM and 0.5 µg/mL
MIC Mtb # 11291 ([18]; single well replicates): 0.5 µg/mL (≈ 3.65 µM)
MIC ([18]; single well replicates): 3.65 µM (≈ 0.501 µg/mL)
MIC [19, 22]: 467 µM and 64 µg/mL
MIC [19, 23]: 467 µM and 64 µg/mL
MIC ([19]; single well replicates): 466.68 µM (≈ 64 µg/mL)
MIC Mtb # 8673 ([19]; single well replicates): 64 µg/mL (≈ 467 µM)
